Source: US8759535B2, “Substituted fused imidazole derivatives, pharmaceutical compositions, and methods of use thereof” (High Point Pharmaceuticals, LLC, priority 2010, dated 2014)
Structures can show the parent of a compound that is named as a salt.

System: HMOX1
Assay: HMOX1 Protein Assay (immunostaining of HO-1 in NHLF cells, GE InCell 1000)
Format: cell-based
Details: Homo sapiens, fold change above DMSO treated cells, 16 h; for fold induction at 5 µM: 5 μM compound; for fold induction at 3 µM: 3 μM compound (asterisk)
Summary of the method: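 Fold induction of HO-1 over vehicle, normally at 5 μM compound (asterisk marks 3 μM), in 0.8% DMSO medium. Normal human lung fibroblasts were treated 16 h, then paraformaldehyde-fixed, anti-HO-1/Alexa 488 stained with Hoechst, and read by high-content imaging.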

**Q.** `CNC1CCN(C(=O)CNC(=O)c2ccc3c(c2)nc(Nc2nc4ccc(OC(F)(F)F)cc4s2)n3C)CC1` [Example 453, 1-Methyl-2-(6-trifluoromethoxy-benzothiazol-2-ylamino)-1H-benzoimidazole-5-carboxylic acid [2-(4-methylamino-piperidin-1-yl)-2-oxo-ethyl]-amide hydrochloride] was tested. Which fold induction at 5 µM did it give?
**A.** 81.1

**Q.** For `CNCCn1c(Nc2nc3ccc(Cl)cc3s2)nc2cc(C(=O)NCC(=O)N(C)C)ccc21` [Example 367, 2-(6-Chloro-benzothiazol-2-ylamino)-1-(2-methylamino-ethyl)-1H-benzoimidazole-5-carboxylic acid dimethylcarbamoylmethyl-amide hydrochloride], which fold induction at 5 µM is on record?
**A.** 25.4

**Q.** With `Cn1c(Nc2nc3ccc(C(F)(F)F)cc3s2)nc2cc(C(=O)NCC(=O)N3CC[C@@H](O)C3)ccc21` [Example 402, 1-Methyl-2-(6-trifluoromethyl-benzothiazol-2-ylamino)-1H-benzoimidazole-5-carboxylic acid [2-((R)-3-hydroxy-pyrrolidin-1-yl)-2-oxo-ethyl]-amide] as the compound, how does the fold induction at 3 µM read?
**A.** 24

**Q.** `Cn1c(Nc2nc3ccc(OC(F)(F)F)cc3s2)nc2cc(C(=O)O)cnc21` [Example 72, 3-Methyl-2-(6-trifluoromethoxy-benzothiazol-2-ylamino)-3H-imidazo[4,5-b]pyridine-6-carboxylic acid] was tested. Which fold induction at 5 µM did it give?
**A.** 11.9

**Q.** How did the fold induction at 3 µM turn out when `CN(C)CCCNC(=O)c1ccc2c(c1)nc(Nc1nc3ccc(OC(F)(F)F)cc3s1)n2C` [Example 348, 1-Methyl-2-(6-trifluoromethoxy-benzothiazol-2-ylamino)-1H-benzoimidazole-5-carboxylic acid (3-dimethylamino-propyl)-amide] was run?
**A.** 22

**Q.** For `CCOCCNC(=O)c1cc2nc(Nc3nc4ccc(OC(F)(F)F)cc4s3)n(C)c2cc1OC` [Example 65, 6-Methoxy-1-methyl-2-(6-trifluoromethoxy-benzothiazol-2-ylamino)-1H-benzoimidazole-5-carboxylic acid (2-ethoxy-ethyl)-amide], which fold induction at 5 µM is on record?
**A.** 10.2

**Q.** Which fold induction at 5 µM does the source give for `COCCNC(=O)c1cc2nc(Nc3nc4ccc(OC(F)(F)F)cc4s3)n(C)c2cc1OC` [Example 67, 6-Methoxy-1-methyl-2-(6-trifluoromethoxy-benzothiazol-2-ylamino)-1H-benzoimidazole-5-carboxylic acid (2-methoxy-ethyl)-amide] here?
**A.** 18.7

**Q.** `Cn1c(Nc2nc3ccc(OC(F)(F)F)cc3s2)nc2cc(C(=O)NCCN3CCCCC3)ccc21` [Example 333, 1-Methyl-2-(6-trifluoromethoxy-benzothiazol-2-ylamino)-1H-benzoimidazole-5-carboxylic acid (2-piperidin-1-yl-ethyl)-amide] was tested. Which fold induction at 5 µM did it give?
**A.** 14.5

**Q.** For `CCn1c(Nc2nc3ccc(OC(F)(F)F)cc3s2)nc2cc(C(=O)NCC(=O)N(C)C)ccc21` [Example 186, 1-Ethyl-2-(6-trifluoromethoxy-benzothiazol-2-ylamino)-1H-benzoimidazole-5-carboxylic acid dimethylcarbamoylmethyl-amide], which fold induction at 5 µM is on record?
**A.** 20.2

**Q.** `CCOCCNC(=O)c1ccc2c(c1)nc(Nc1nc3ccc(OC(F)(F)F)cc3s1)n2CCOC` [Example 169, 1-(2-Methoxy-ethyl)-2-(6-trifluoromethoxy-benzothiazol-2-ylamino)-1H-benzoimidazole-5-carboxylic acid (2-ethoxy-ethyl)-amide] was tested. Which fold induction at 5 µM did it give?
**A.** 24.4

**Q.** Which fold induction at 5 µM does the source give for `CCNC(=O)c1cnc2c(c1)nc(Nc1nc3ccc(OC(F)(F)F)cc3s1)n2C` [Example 76, 3-Methyl-2-(6-trifluoromethoxy-benzothiazol-2-ylamino)-3H-imidazo[4,5-b]pyridine-6-carboxylic acid ethylamide] here?
**A.** 22.5

**Q.** How did the fold induction at 5 µM turn out when `Cn1c(Nc2nc3ccc(OC(F)(F)F)cc3s2)nc2cc(C(=O)NCC(=O)OC(C)(C)C)ccc21` [Example 91, {[1-Methyl-2-(6-trifluoromethoxy-benzothiazol-2-ylamino)-1H-benzoimidazole-5-carbonyl]-amino}-acetic acid tert-butyl ester] was run?
**A.** 10.1

**Q.** With `CCN(CC)c1cc2c(cc1C(=O)NCC(=O)N(C)C)nc(Nc1nc3ccc(OC(F)(F)F)cc3s1)n2C` [Example 361, 6-Diethylamino-1-methyl-2-(6-trifluoromethoxy-benzothiazol-2-ylamino)-1H-benzoimidazole-5-carboxylic acid dimethylcarbamoylmethyl-amide] as the compound, how does the fold induction at 5 µM read?
**A.** 28.8

**Q.** With `CN(C)CC(=O)N1CC[C@@H](NC(=O)c2ccc3c(c2)nc(Nc2nc4ccc(Cl)cc4s2)n3C)C1` [Example 308, 2-(6-Chloro-benzothiazol-2-ylamino)-1-methyl-1H-benzoimidazole-5-carboxylic acid [(R)-1-(2-dimethylamino-acetyl)-pyrrolidin-3-yl]-amide] as the compound, how does the fold induction at 5 µM read?
**A.** 24.3

**Q.** With `Cc1ccc2nc(Nc3nc4cc(C(=O)NCC(=O)N(C)C)ccc4n3C)sc2c1` [Example 363, 1-Methyl-2-(6-methyl-benzothiazol-2-ylamino)-1H-benzoimidazole-5-carboxylic acid dimethylcarbamoylmethyl-amide] as the compound, how does the fold induction at 5 µM read?
**A.** 10

**Q.** How did the fold induction at 5 µM turn out when `CCN(CC)c1cc2c(cc1C(=O)NCCN1CCOCC1)nc(Nc1nc3ccc(OC(F)(F)F)cc3s1)n2C` [Example 362, 6-Diethylamino-1-methyl-2-(6-trifluoromethoxy-benzothiazol-2-ylamino)-1H-benzoimidazole-5-carboxylic acid (2-morpholin-4-yl-ethyl)-amide] was run?
**A.** 13

**Q.** With `Cn1c(Nc2nc3ccc(Cl)cc3s2)nc2cc(C(=O)NCCCN3CCOCC3)ccc21` [Example 359, 2-(6-Chloro-benzothiazol-2-ylamino)-1-methyl-1H-benzoimidazole-5-carboxylic acid (3-morpholin-4-yl-propyl)-amide] as the compound, how does the fold induction at 3 µM read?
**A.** 17.4

**Q.** How did the fold induction at 5 µM turn out when `CCn1c(Nc2nc3ccc(OC(F)(F)F)cc3s2)nc2cc(C(=O)O)ccc21` [Example 154, 1-Ethyl-2-(6-trifluoromethoxy-benzothiazol-2-ylamino)-1H-benzoimidazole-5-carboxylic acid] was run?
**A.** 27.1

**Q.** `COC(=O)C(C)(C)NC(=O)c1ccc2c(c1)nc(Nc1nc3ccc(OC(F)(F)F)cc3s1)n2C` [Example 145, 2-Methyl-2-{[1-methyl-2-(6-trifluoromethoxy-benzothiazol-2-ylamino)-1H-benzimidazole-5-carbonyl]-amino}-propionic acid methyl ester] was tested. Which fold induction at 5 µM did it give?
**A.** 7.1

**Q.** With `Cn1c(Nc2nc3ccc(OC(F)(F)F)cc3s2)nc2ccc(C(=O)NCCOCCO)cc21` [Example 286, 3-Methyl-2-(6-trifluoromethoxy-benzothiazol-2-ylamino)-3H-benzoimidazole-5-carboxylic acid [2-(2-hydroxy-ethoxy)-ethyl]-amide] as the compound, how does the fold induction at 5 µM read?
**A.** 61.1

**Q.** For `Cn1c(Nc2nc3ccc(Cl)cc3s2)nc2cc(C(=O)NCC(=O)N3CCC(O)C3)ccc21` (stereo not drawn) [Example 399, 2-(6-Chloro-benzothiazol-2-ylamino)-1-methyl-1H-benzoimidazole-5-carboxylic acid [2-(3-hydroxy-pyrrolidin-1-yl)-2-oxo-ethyl]-amide], which fold induction at 5 µM is on record?
**A.** 20.8

**Q.** Which fold induction at 3 µM does the source give for `Cn1c(Nc2nc3ccc(C(F)(F)F)cc3s2)nc2cc(C(=O)NCC(=O)N3CCC[C@@H](O)C3)ccc21` [Example 432, 1-Methyl-2-(6-trifluoromethyl-benzothiazol-2-ylamino)-1H-benzoimidazole-5-carboxylic acid [2-((R)-3-hydroxy-piperidin-1-yl)-2-oxo-ethyl]-amide] here?
**A.** 27.3

**Q.** Which fold induction at 5 µM does the source give for `CN(C)C(=O)CCNC(=O)c1ccc2c(c1)nc(Nc1nc3ccc(OC(F)(F)F)cc3s1)n2C` [Example 135, 1-Methyl-2-(6-trifluoromethoxy-benzothiazol-2-ylamino)-1H-benzimidazole-5-carboxylic acid (2-dimethylcarbamoyl-ethyl)-amide] here?
**A.** 49.6

**Q.** How did the fold induction at 5 µM turn out when `CN(C)CC1CCN(C(=O)CNC(=O)c2ccc3c(c2)nc(Nc2nc4ccc(Cl)cc4s2)n3C)CC1` [Example 459, 2-(6-Chloro-benzothiazol-2-ylamino)-1-methyl-1H-benzoimidazole-5-carboxylic acid [2-(4-dimethylaminomethyl-piperidin-1-yl)-2-oxo-ethyl]-amide] was run?
**A.** 42

**Q.** With `CCn1c(Nc2nc3ccc(OC(F)(F)F)cc3s2)nc2cc(S(=O)(=O)C(F)(F)F)ccc21` [Example 199, (1-Ethyl-5-trifluoromethanesulfonyl-1H-benzoimidazol-2-yl)-(6-trifluoromethoxy-benzothiazol-2-yl)-amine] as the compound, how does the fold induction at 5 µM read?
**A.** 1.5

**Q.** `Cn1c(Nc2nc3ccc(Cl)cc3s2)nc2cc(C(=O)O)ccc21` [Example 29, 2-(6-Chloro-benzothiazol-2-ylamino)-1-methyl-1H-benzoimidazole-5-carboxylic acid] was tested. Which fold induction at 5 µM did it give?
**A.** 13.9

**Q.** Which fold induction at 5 µM does the source give for `CCNC(=O)c1cc2nc(Nc3nc4ccc(OC(F)(F)F)cc4s3)n(C)c2cc1OC` [Example 64, 6-Methoxy-1-methyl-2-(6-trifluoromethoxy-benzothiazol-2-ylamino)-1H-benzoimidazole-5-carboxylic acid ethylamide] here?
**A.** 18.9

**Q.** For `CN(C)[C@H]1CCN(C(=O)CNC(=O)c2ccc3c(c2)nc(Nc2nc4ccc(OC(F)(F)F)cc4s2)n3C)C1` [Example 416, 1-Methyl-2-(6-trifluoromethoxy-benzothiazol-2-ylamino)-1H-benzoimidazole-5-carboxylic acid [2-((S)-3-dimethylamino-pyrrolidin-1-yl)-2-oxo-ethyl]-amide], which fold induction at 5 µM is on record?
**A.** 96.6

**Q.** `C[C@H](O)CNC(=O)c1ccc2c(c1)nc(Nc1nc3ccc(Cl)cc3s1)n2C` [Example 204, 2-(6-Chloro-benzothiazol-2-ylamino)-1-methyl-1H-benzoimidazole-5-carboxylic acid ((S)-2-hydroxy-propyl)-amide] was tested. Which fold induction at 3 µM did it give?
**A.** 19.3

**Q.** With `CNC(=O)c1ccc2c(c1)nc(Nc1nc3ccc(OC(F)(F)F)cc3s1)n2CC(C)C` [Example 164, 1-Isobutyl-2-(6-trifluoromethoxy-benzothiazol-2-ylamino)-1H-benzoimidazole-5-carboxylic acid methylamide] as the compound, how does the fold induction at 5 µM read?
**A.** 20.5
